Results: patent US8568714B2, “Lys K endolysin is synergistic with lysostaphin against MRSA” (priority 2008, dated 2013)
Where “and” joins values, the source holds several entries; their conditions need not be identical. Equal entries are not always repeated. Where two headings read alike, the source gives them in different places.

Columns and labels:
[1] = system: MRSA strain USA300; assay: Microdilution broth MIC determination; assay type: cell-based, Staphylococcus aureus; conditions: MRSA USA300, TSB, 37° C., 20 h
Description: (§1) A classical microdilution broth method for determination of the Minimal Inhibitory Concentration (MIC) was used (Jones et al. 1985. In Manual of Clinical Microbiology, Balows et al. (Eds.), American Society for Microbiology, Washington D.C., pages 972-977). Briefly, logarithmic-phase bacteria were cultivated in tryptic soy broth and adjusted in broth to a concentration of 1×10^6 CFU/ml. Sterile microtiter plates containing 100 μl of either LysK or lysostaphin diluted in TSB are inoculated with 100 μl of the bacterial suspension to yield 5×10^5 CFU/ml. The plate is incubated at 37° C. for 20 h, at which point the plate is analyzed for clear vs. turbid wells. Each MIC assay represents at least two identical determinations per experiment.
MIC determinations for MRSA strain USA300 by lysostaphin and C-His-LysK, were performed in a 96 well microtiter plate. (FIG. 5).

[2] = system: MRSA USA300; assay: Modified checkerboard synergy assay; assay type: cell-based, Staphylococcus aureus
Description: Modified checkerboard assay experiments were performed according to Graham and Coote, supra. S. aureus 305 or MRSA USA300 cells at 1×10^6 CFU/ml were prepared as for the MIC assay, and added to wells containing varying concentrations of both LysK and lysostaphin diluted in TSB. The amount of buffer in each well was adjusted to maintain the same final concentration of storage buffer (5%) and corrected with 2×TSB to maintain 1×TSB in all wells. The plate was incubated at 37° C. for 20 h, and then analyzed for clear vs. turbid wells. The Fractional Inhibitory Concentration (FIC) is calculated as the MIC of the antimicrobial in combination divided by the MIC of the antimicrobial acting alone.
To determine if these proteins could act synergistically, both LysK and lysostaphin were tested in a checkerboard assay with various concentrations of each to determine the minimal concentration of each in combination, that could inhibit growth of the MRSA USA300 (FIG. 6). The last row and column on the 96 well microtiter plate replicate the MIC determinations for lysostaphin and LysK, respectively, with nearly identical results obtained for the MIC in this assay, as in FIG. 5. […] It is apparent that the inhibition of growth when the two were added simultaneously was greater than the expected additive effect of each alone. The ΣFIC was 0.45+/−0.07 (three independent experiments), indicating strong synergistic activity (Hall et al., supra), including one assay with S. aureus 305 (data not shown).

[3] = system: S. aureus strain 305; assay: MIC determination on S. aureus strain 305; assay type: cell-based; conditions: Staphylococcus aureus
Description: as §1

| Compound | MIC [1] [µg/mL] | MIC ([1]; listed as Lysostaphin) | concentration of each in combination that inhibits growth ([2]; cleared well: lysostaphin 0.018 with LysK 11.43) [µg/mL] | concentration of each in combination that inhibits growth ([2]; cleared well: lysostaphin 0.027 with LysK 5.71) [µg/mL] | concentration in combination as % of each agent's MIC ([2]; second cleared-well condition) | MIC ([3]; read-out: MIC) [µg/mL] | MIC ([3]; translated from μg/ml, read-out: MIC on a molar basis) [µM] |
| --- | --- | --- | --- | --- | --- | --- | --- |
| lysostaphin: recombinant non-tagged mature 246 amino acid anti-staphylococcal bacteriocin of S. simulans, Sigma-Aldrich L0761 | 0.096 | 0.097 µg/mL and 0.096 ± 0.018 µg/mL | 0.018 | 0.027 | 16% and < 16% | – | – |
| CC1(C)S[C@@H]2[C@H](NC(=O)[C@H](N)c3ccccc3)C(=O)N2[C@H]1C(=O)O [Ampicillin] | – | – | – | – | – | ~0.4 | ~1 |
